# “And” between values parts separate entries of the source, which are not always exact repeats. Equal entries are not always repeated. Where a SMILES comes first, the peptide text is derived from it. [ ]: non-standard residue; d: D form. Hyp = O=C(O)[C@@H]1C[C@@H](O)CN1
# Tested on: VEGF-A
# Assay: Example 9 Luminex, LPS hPBMCs: VEGF-A
# Assay type: cell-based, human
# Method: Treatment Human PBMCs were pretreated with YY-101, YDE-011 and YDE-043 or reference compound; Xiidra® at various concentration (ranging from 1 nM to 100 uM) for 2 h before stimulation. An equal volume of 0.5% DMSO was used as a vehicle control. Then, the cells were treated with LPS at 5 ug/ml. The supernatants from treated cells were harvested at 24 h and placed in a 96 well for Luminex cytokine & chemokine profiling using a Luminex 200 multiplex assay (Luminex; R&D system, USA).
# The main study arm with triplicate wells per group in a 24-well plate: • 1. Blank • 2. PBMC: 0.5% DMSO • 3. PBMC+LPS (5 ug/ml) • 4. PBMC+YY-101 100 uM • 5. PBMC+YY-101 10 uM • 6. PBMC+YY-101 1 uM • 7. PBMC+YY-101 0.1 uM • 8. PBMC+YY-101 0.01 uM • 9. PBMC+LPS (5 ug/ml)+Xiidra®100 uM • 10. PBMC+LPS (5 ug/ml)+Xiidra® 10 uM • 11. PBMC+LPS (5 ug/ml)+Xiidra® 1 uM • 12. PBMC+LPS (5 ug/ml)+Xiidra®0.1 uM • 13. PBMC+LPS (5 ug/ml)+Xiidra®0.01 uM • 14. PBMC+LPS (5 ug/ml)+Xiidra®0.001 uM • 15. PBMC+LPS (5 ug/ml)+YY-101 100 uM • 16. PBMC+LPS (5 ug/ml)+YY-101 10 uM • 17. PBMC+LPS (5 ug/ml)+YY-101 1 uM • 18. PBMC+LPS (5 ug/ml)+YY-101 0.1 uM • 19. PBMC+LPS (5 ug/ml)+YY-101 0.01 uM • 20. PBMC+LPS (5 ug/ml)+YY-101 0.001 uM • 21. PBMC+LPS (5 ug/ml)+YDE-011 100 uM • 22. PBMC+LPS (5 ug/ml)+YDE-011 10 uM • 23. PBMC+LPS (5 ug/ml)+YDE-011 1 uM • 24. PBMC+LPS (5 ug/ml)+YDE-011 0.1 uM • 25. PBMC+LPS (5 ug/ml)+YDE-011 0.01 uM • 26. PBMC+LPS (5 ug/ml)+YDE-011 0.001 uM • 27. PBMC+LPS (5 ug/ml)+YDE-043 100 uM • 28. PBMC+LPS (5 ug/ml)+YDE-043 10 uM • 29. PBMC+LPS (5 ug/ml)+YDE-043 1 uM • 30. PBMC+LPS (5 ug/ml)+YDE-043 0.1 uM • 31. PBMC+LPS (5 ug/ml)+YDE-043 0.01 uM • 32. PBMC+LPS (5 ug/ml)+YDE-043 0.001 uM
# Multiplex assay was used to measure 30 cytokines and chemokines. The 1:2, 1:10 and 1:200 diluted cell supernatant and serial dilution of the standard were dispensed into a 96 well plate at 50 ul/well. Then, the pre-mixed cocktail of antibody-coated magnetic beads was dispensed at 50 ul/well and incubated at room temperature for 2 h in a horizontal orbital microplate shaker at 800±500 rpm. The beads were washed using a magnetic device to prevent loss. The biotin-antibody was dispensed in 50 ul of each well and incubated at room temperature for 1 h in a shaker at 800±500 rpm. After washing, streptavidin-PE was added at 50 ul/well and incubated at room temperature for 30 min in a shaker under the same conditions. Finally, after washing, wash buffer (100 ul/well) was added to the plate and incubated in a shaker for 2 min. The Luminex™ 200 setting were set according to the manufacturer's protocol. The data was calculated with a standard five-parameter logistic nonlinear regression analysis of the data (xPonent software 4.2, USA). The levels of cytokine/chemokine are normalized to the live cell counts (1×10^5 cells/mL) and presented as concentrations per mL (pg/mL or ng/mL).
# [1] = PBMC + LPS(5 ug/ml) + test article 0.001 uM, Mean
# [2] = PBMC + LPS(5 ug/ml) + test article 0.001 uM, single replicates
# [3] = PBMC + LPS(5 ug/ml) + test article 0.01 uM, Mean
# [4] = PBMC + LPS(5 ug/ml) + test article 0.01 uM, single replicates
# [5] = PBMC + LPS(5 ug/ml) + test article 0.1 uM, Mean
# [6] = PBMC + LPS(5 ug/ml) + test article 0.1 uM, single replicates
# [7] = PBMC + LPS(5 ug/ml) + test article 1 uM, Mean
# [8] = PBMC + LPS(5 ug/ml) + test article 1 uM, single replicates
# [9] = PBMC + LPS(5 ug/ml) + test article 10 uM, Mean
# [10] = PBMC + LPS(5 ug/ml) + test article 10 uM, single replicates
# [11] = PBMC + LPS(5 ug/ml) + test article 100 uM, Mean
# [12] = PBMC + LPS(5 ug/ml) + test article 100 uM, single replicates
# [13] = PBMC + test article 0.01 uM, no LPS, Mean
# [14] = PBMC + test article 0.01 uM, no LPS, single replicates
# [15] = PBMC + test article 0.1 uM, no LPS, Mean
# [16] = PBMC + test article 0.1 uM, no LPS, single replicates
# [17] = PBMC + test article 1 uM, no LPS, Mean
# [18] = PBMC + test article 1 uM, no LPS, single replicates
# [19] = PBMC + test article 10 uM, no LPS, Mean
# [20] = PBMC + test article 10 uM, no LPS, single replicates
# [21] = PBMC + test article 100 uM, no LPS, Mean
# [22] = PBMC + test article 100 uM, no LPS, single replicates
smiles,measurement,setting,value
CC(C)C[C@H](NC(=O)CNC(=O)[C@H](CC(=O)O)NC(=O)[C@H](CCC(N)=O)NC(=O)CNC(=O)[C@@H]1C[C@@H](O)CN1)C(=O)N[C@@H](C)C(=O)NCC(=O)N1CCC[C@H]1C(=O)N[C@@H](CCCCN)C(=O)O [YY-101] (H-[Hyp]GQDGLAGPK-OH; N-terminus and C-terminus assumed),"Concentration, Bead name: VEGF-A",[1],3.0 pg/mL
same,"MFI, Bead name: VEGF-A",[1],−0.9
same,"conc/live cell, Bead name: VEGF-A",[1],0.4 pg/10^5
same,"Concentration, Bead name: VEGF-A",[2],2.2 pg/mL and 6.1 pg/mL and 0.6 pg/mL
same,"MFI, Bead name: VEGF-A",[2],−1.3 and 0.3 and −1.8
same,"conc/live cell, Bead name: VEGF-A",[2],0.4 pg/10^5 and 0.9 pg/10^5 and 0.1 pg/10^5
same,"Concentration, Bead name: VEGF-A",[3],0.6 pg/mL
same,"MFI, Bead name: VEGF-A",[3],−3.1
same,"conc/live cell, Bead name: VEGF-A",[3],0.0 pg/10^5
same,"Concentration, Bead name: VEGF-A",[4],0.6 pg/mL
same,"MFI, Bead name: VEGF-A",[4],−1.8 and −3.8 (2×)
same,"conc/live cell, Bead name: VEGF-A",[4],0.1 pg/10^5 and 0.0 pg/10^5 (2×)
same,"Concentration, Bead name: VEGF-A",[5],2.6 pg/mL
same,"MFI, Bead name: VEGF-A",[5],−1.1
same,"conc/live cell, Bead name: VEGF-A",[5],0.4 pg/10^5
same,"Concentration, Bead name: VEGF-A",[6],3.6 pg/ml (2×) and 0.6 pg/ml
same,"MFI, Bead name: VEGF-A",[6],−0.8 (2×) and −1.8
same,"conc/live cell, Bead name: VEGF-A",[6],0.6 pg/10^5 (2×) and 0.1 pg/10^5
same,"Concentration, Bead name: VEGF-A",[7],2.9 pg/mL
same,"MFI, Bead name: VEGF-A",[7],−1.4
same,"conc/live cell, Bead name: VEGF-A",[7],0.3 pg/10^5
same,"Concentration, Bead name: VEGF-A",[8],2.2 pg/mL and 3.6 pg/mL
same,"MFI, Bead name: VEGF-A",[8],−2.3 and −1.3 and −0.8
same,"conc/live cell, Bead name: VEGF-A",[8],0.0 pg/10^5 and 0.3 pg/10^5 and 0.6 pg/10^5
same,"Concentration, Bead name: VEGF-A",[9],2.7 pg/mL
same,"MFI, Bead name: VEGF-A",[9],−1.1
same,"conc/live cell, Bead name: VEGF-A",[9],0.4 pg/10^5
same,"Concentration, Bead name: VEGF-A",[10],2.2 pg/ml (2×) and 3.6 pg/ml
same,"MFI, Bead name: VEGF-A",[10],−1.3 (2×) and −0.8
same,"conc/live cell, Bead name: VEGF-A",[10],0.4 pg/10^5 and 0.3 pg/10^5 and 0.5 pg/10^5
same,"Concentration, Bead name: VEGF-A",[11],4.3 pg/mL
same,"MFI, Bead name: VEGF-A",[11],−0.4
same,"conc/live cell, Bead name: VEGF-A",[11],0.7 pg/10^5
same,"Concentration, Bead name: VEGF-A",[12],6.1 pg/ml (2×) and 0.6 pg/ml
same,"MFI, Bead name: VEGF-A",[12],0.3 (2×) and −1.8
same,"conc/live cell, Bead name: VEGF-A",[12],1.0 pg/10^5 (2×) and 0.1 pg/10^5
same,"Concentration, Bead name: VEGF-A",[13],8.4 pg/mL
same,"MFI, Bead name: VEGF-A",[13],1.3
same,"conc/live cell, Bead name: VEGF-A",[13],1.7 pg/10^5
same,"Concentration, Bead name: VEGF-A",[14],10.7 pg/mL and 6.1 pg/mL
same,"MFI, Bead name: VEGF-A",[14],2.3 and 0.3
same,"conc/live cell, Bead name: VEGF-A",[14],2.1 pg/10^5 and 1.3 pg/10^5
same,"Concentration, Bead name: VEGF-A",[15],7.3 pg/mL
same,"MFI, Bead name: VEGF-A",[15],0.8
same,"conc/live cell, Bead name: VEGF-A",[15],1.4 pg/10^5
same,"Concentration, Bead name: VEGF-A",[16],6.1 pg/mL and 8.5 pg/mL
same,"MFI, Bead name: VEGF-A",[16],0.3 and 1.3
same,"conc/live cell, Bead name: VEGF-A",[16],1.4 pg/10^5 and 1.5 pg/10^5
same,"Concentration, Bead name: VEGF-A",[17],7.3 pg/mL
same,"MFI, Bead name: VEGF-A",[17],0.8
same,"conc/live cell, Bead name: VEGF-A",[17],1.3 pg/10^5
same,"Concentration, Bead name: VEGF-A",[18],8.5 pg/mL and 6.1 pg/mL
same,"MFI, Bead name: VEGF-A",[18],1.3 and 0.3
same,"conc/live cell, Bead name: VEGF-A",[18],1.5 pg/10^5 and 1.1 pg/10^5
same,"Concentration, Bead name: VEGF-A",[19],7.9 pg/mL
same,"MFI, Bead name: VEGF-A",[19],1.0
same,"conc/live cell, Bead name: VEGF-A",[19],1.3 pg/10^5
same,"Concentration, Bead name: VEGF-A",[20],7.3 pg/mL and 8.5 pg/mL
same,"MFI, Bead name: VEGF-A",[20],0.8 and 1.3
same,"conc/live cell, Bead name: VEGF-A",[20],1.1 pg/10^5 and 1.4 pg/10^5
same,"Concentration, Bead name: VEGF-A",[21],3.6 pg/mL
same,"MFI, Bead name: VEGF-A",[21],−0.8
same,"conc/live cell, Bead name: VEGF-A",[21],0.5 pg/10^5
same,"Concentration, Bead name: VEGF-A",[22],3.6 pg/mL
same,"MFI, Bead name: VEGF-A",[22],−0.8
same,"conc/live cell, Bead name: VEGF-A",[22],0.6 pg/10^5 and 0.5 pg/10^5
